Measurements reported in PubChem BioAssay (NCI).
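Test compounds were applied to cells in 96-well plates for 48 hours at 5 doses. TGI denotes the concentration required for complete inhibition of growth.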

Tests used:
Assay in all cases: growth of human tumour cells (NCI), 48 h
786-0 renal = test system: 786-0 renal
A549 NSCLC = test system: A549 NSCLC
ACHN renal = test system: ACHN renal
BT-549 breast = test system: BT-549 breast
CAKI-1 renal = test system: CAKI-1 renal
CCRF-CEM leukemia = test system: CCRF-CEM leukemia
COLO 205 colon = test system: COLO 205 colon
DU-145 prostate = test system: DU-145 prostate
EKVX NSCLC = test system: EKVX NSCLC
HCC-2998 colon = test system: HCC-2998 colon
HCT-116 colon = test system: HCT-116 colon
HCT-15 colon = test system: HCT-15 colon
HL-60(TB) leukemia = test system: HL-60(TB) leukemia
HOP-62 NSCLC = test system: HOP-62 NSCLC
HOP-92 NSCLC = test system: HOP-92 NSCLC
HS 578T breast = test system: HS 578T breast
HT29 colon = test system: HT29 colon
IGROV1 ovarian = test system: IGROV1 ovarian
K-562 leukemia = test system: K-562 leukemia
KM12 colon = test system: KM12 colon
LOX IMVI melanoma = test system: LOX IMVI melanoma
M14 melanoma = test system: M14 melanoma
MALME-3M melanoma = test system: MALME-3M melanoma
MCF7 breast = test system: MCF7 breast
MDA-MB-231 breast = test system: MDA-MB-231 breast
MDA-MB-435 = test system: MDA-MB-435
MDA-N = test system: MDA-N
MOLT-4 leukemia = test system: MOLT-4 leukemia
NCI-H23 lung = test system: NCI-H23 lung
NCI-H460 lung = test system: NCI-H460 lung
NCI-H522 lung = test system: NCI-H522 lung
NCI/ADR-RES ovarian = test system: NCI/ADR-RES ovarian
OVCAR-3 ovarian = test system: OVCAR-3 ovarian
OVCAR-4 ovarian = test system: OVCAR-4 ovarian
OVCAR-5 ovarian = test system: OVCAR-5 ovarian
OVCAR-8 ovarian = test system: OVCAR-8 ovarian
PC-3 prostate = test system: PC-3 prostate
RPMI-8226 leukemia = test system: RPMI-8226 leukemia
RXF 393 renal = test system: RXF 393 renal
SF-268 CNS = test system: SF-268 CNS
SF-295 CNS = test system: SF-295 CNS
SF-539 CNS = test system: SF-539 CNS
SK-MEL-2 melanoma = test system: SK-MEL-2 melanoma
SK-MEL-28 melanoma = test system: SK-MEL-28 melanoma
SK-MEL-5 melanoma = test system: SK-MEL-5 melanoma
SK-OV-3 ovarian = test system: SK-OV-3 ovarian
SN12C renal = test system: SN12C renal
SNB-19 CNS = test system: SNB-19 CNS
SNB-75 CNS = test system: SNB-75 CNS
SR leukemia = test system: SR leukemia
SW-620 colon = test system: SW-620 colon
T-47D breast = test system: T-47D breast
TK-10 renal = test system: TK-10 renal
U251 CNS = test system: U251 CNS
UACC-257 melanoma = test system: UACC-257 melanoma
UACC-62 melanoma = test system: UACC-62 melanoma
A498 renal = test system: A498 renal
NCI-H226 lung = test system: NCI-H226 lung
UO-31 renal = test system: UO-31 renal

SMILES: Cc1cc2nc3c(C)c4ccccc4c(C)n3c2cc1C
- TGI (786-0 renal): 6.62 µM
- TGI (A549 NSCLC): > 10 µM
- TGI (ACHN renal): > 10 µM
- TGI (BT-549 breast): > 10 µM
- TGI (CAKI-1 renal): > 10 µM
- TGI (CCRF-CEM leukemia): > 10 µM
- TGI (COLO 205 colon): > 10 µM
- TGI (DU-145 prostate): > 10 µM
- TGI (EKVX NSCLC): > 10 µM
- TGI (HCC-2998 colon): > 10 µM
- TGI (HCT-116 colon): 3.96 µM
- TGI (HCT-15 colon): 6.14 µM
- TGI (HL-60(TB) leukemia): 6.33 µM
- TGI (HOP-62 NSCLC): > 10 µM
- TGI (HOP-92 NSCLC): 8.45 µM
- TGI (HS 578T breast): > 10 µM
- TGI (HT29 colon): > 10 µM
- TGI (IGROV1 ovarian): > 10 µM
- TGI (K-562 leukemia): > 10 µM
- TGI (KM12 colon): > 10 µM
- TGI (LOX IMVI melanoma): 3.61 µM
- TGI (M14 melanoma): > 10 µM
- TGI (MALME-3M melanoma): 6.66 µM
- TGI (MCF7 breast): > 10 µM
- TGI (MDA-MB-231 breast): 7.51 µM
- TGI (MDA-MB-435): > 10 µM
- TGI (MDA-N): 7.8 µM
- TGI (MOLT-4 leukemia): > 10 µM
- TGI (NCI-H23 lung): > 10 µM
- TGI (NCI-H460 lung): 4.84 µM
- TGI (NCI-H522 lung): > 10 µM
- TGI (NCI/ADR-RES ovarian): 8.41 µM
- TGI (OVCAR-3 ovarian): 7.8 µM
- TGI (OVCAR-4 ovarian): > 10 µM
- TGI (OVCAR-5 ovarian): > 10 µM
- TGI (OVCAR-8 ovarian): > 10 µM
- TGI (PC-3 prostate): > 10 µM
- TGI (RPMI-8226 leukemia): > 10 µM
- TGI (RXF 393 renal): 8.66 µM
- TGI (SF-268 CNS): > 10 µM
- TGI (SF-295 CNS): > 10 µM
- TGI (SF-539 CNS): 4.88 µM
- TGI (SK-MEL-2 melanoma): > 10 µM
- TGI (SK-MEL-28 melanoma): 9 µM
- TGI (SK-MEL-5 melanoma): > 10 µM
- TGI (SK-OV-3 ovarian): > 10 µM
- TGI (SN12C renal): > 10 µM
- TGI (SNB-19 CNS): > 10 µM
- TGI (SNB-75 CNS): > 10 µM
- TGI (SR leukemia): 9.01 µM
- TGI (SW-620 colon): > 10 µM
- TGI (T-47D breast): > 10 µM
- TGI (TK-10 renal): > 10 µM
- TGI (U251 CNS): > 10 µM
- TGI (UACC-257 melanoma): > 10 µM
- TGI (UACC-62 melanoma): > 10 µM

SMILES: NC(=O)C1CCCN1Cc1ccc2c(c1)OCO2 (configuration not stated)
- TGI (786-0 renal): > 100 µM
- TGI (A498 renal): > 100 µM
- TGI (A549 NSCLC): > 100 µM
- TGI (ACHN renal): > 100 µM
- TGI (BT-549 breast): > 100 µM
- TGI (CAKI-1 renal): > 100 µM
- TGI (CCRF-CEM leukemia): > 100 µM
- TGI (COLO 205 colon): > 100 µM
- TGI (DU-145 prostate): > 100 µM
- TGI (EKVX NSCLC): > 100 µM
- TGI (HCT-116 colon): > 100 µM
- TGI (HCT-15 colon): > 100 µM
- TGI (HL-60(TB) leukemia): > 100 µM
- TGI (HOP-62 NSCLC): > 100 µM
- TGI (HOP-92 NSCLC): > 100 µM
- TGI (HS 578T breast): > 100 µM
- TGI (HT29 colon): > 100 µM
- TGI (IGROV1 ovarian): > 100 µM
- TGI (K-562 leukemia): > 100 µM
- TGI (KM12 colon): > 100 µM
- TGI (LOX IMVI melanoma): > 100 µM
- TGI (M14 melanoma): > 100 µM
- TGI (MALME-3M melanoma): > 100 µM
- TGI (MCF7 breast): > 100 µM
- TGI (MDA-MB-231 breast): > 100 µM
- TGI (MDA-MB-435): > 100 µM
- TGI (MDA-N): > 100 µM
- TGI (MOLT-4 leukemia): > 100 µM
- TGI (NCI-H226 lung): > 100 µM
- TGI (NCI-H23 lung): > 100 µM
- TGI (NCI-H460 lung): > 100 µM
- TGI (NCI-H522 lung): > 100 µM
- TGI (NCI/ADR-RES ovarian): > 100 µM
- TGI (OVCAR-3 ovarian): > 100 µM
- TGI (OVCAR-4 ovarian): > 100 µM
- TGI (OVCAR-5 ovarian): > 100 µM
- TGI (OVCAR-8 ovarian): > 100 µM
- TGI (PC-3 prostate): > 100 µM
- TGI (RPMI-8226 leukemia): > 100 µM
- TGI (RXF 393 renal): > 100 µM
- TGI (SF-268 CNS): > 100 µM
- TGI (SF-295 CNS): > 100 µM
- TGI (SF-539 CNS): > 100 µM
- TGI (SK-MEL-2 melanoma): > 100 µM
- TGI (SK-MEL-28 melanoma): > 100 µM
- TGI (SK-MEL-5 melanoma): > 100 µM
- TGI (SK-OV-3 ovarian): > 100 µM
- TGI (SN12C renal): > 100 µM
- TGI (SNB-19 CNS): > 100 µM
- TGI (SNB-75 CNS): > 100 µM
- TGI (SR leukemia): > 100 µM
- TGI (SW-620 colon): > 100 µM
- TGI (T-47D breast): > 100 µM
- TGI (TK-10 renal): > 100 µM
- TGI (U251 CNS): > 100 µM
- TGI (UACC-257 melanoma): > 100 µM
- TGI (UACC-62 melanoma): > 100 µM
- TGI (UO-31 renal): > 100 µM

SMILES: Cc1ccc(S(=O)(=O)N(CC(O)COc2ccccc2)c2ccccc2Cl)cc1 (configuration not stated)
- TGI (786-0 renal): 32.4 µM
- TGI (A498 renal): 35 µM
- TGI (A549 NSCLC): 27.9 µM
- TGI (ACHN renal): 33.7 µM
- TGI (BT-549 breast): 31.4 µM
- TGI (CAKI-1 renal): 44.3 µM
- TGI (CCRF-CEM leukemia): 40.4 µM
- TGI (COLO 205 colon): 34 µM
- TGI (DU-145 prostate): 57.5 µM
- TGI (EKVX NSCLC): 31.8 µM
- TGI (HCC-2998 colon): 37 µM
- TGI (HCT-116 colon): 27.7 µM
- TGI (HCT-15 colon): 29.3 µM
- TGI (HL-60(TB) leukemia): 67.8 µM
- TGI (HOP-62 NSCLC): 34.8 µM
- TGI (HS 578T breast): 26.4 µM
- TGI (HT29 colon): 31.9 µM
- TGI (IGROV1 ovarian): 25.1 µM
- TGI (K-562 leukemia): 36.1 µM
- TGI (KM12 colon): 30.5 µM
- TGI (LOX IMVI melanoma): 38.8 µM
- TGI (M14 melanoma): 31 µM
- TGI (MALME-3M melanoma): 29.2 µM
- TGI (MCF7 breast): 58.5 µM
- TGI (MDA-MB-231 breast): 29.3 µM
- TGI (MDA-MB-435): 31.7 µM
- TGI (MDA-N): 33.2 µM
- TGI (MOLT-4 leukemia): 52.9 µM
- TGI (NCI-H226 lung): 32.3 µM
- TGI (NCI-H23 lung): 31.1 µM
- TGI (NCI-H460 lung): 36.2 µM
- TGI (NCI-H522 lung): 25.1 µM
- TGI (NCI/ADR-RES ovarian): 37.8 µM
- TGI (OVCAR-3 ovarian): 42.1 µM
- TGI (OVCAR-4 ovarian): 26.1 µM
- TGI (OVCAR-5 ovarian): 51 µM
- TGI (OVCAR-8 ovarian): 33.5 µM
- TGI (PC-3 prostate): 30.8 µM
- TGI (RPMI-8226 leukemia): 30.4 µM
- TGI (RXF 393 renal): 32 µM
- TGI (SF-268 CNS): 35.7 µM
- TGI (SF-295 CNS): 43.5 µM
- TGI (SF-539 CNS): 33.2 µM
- TGI (SK-MEL-2 melanoma): 27 µM
- TGI (SK-MEL-28 melanoma): 29.1 µM
- TGI (SK-MEL-5 melanoma): 27.8 µM
- TGI (SK-OV-3 ovarian): 52 µM
- TGI (SN12C renal): 29.4 µM
- TGI (SNB-19 CNS): 39.5 µM
- TGI (SNB-75 CNS): 41.7 µM
- TGI (SR leukemia): 35.1 µM
- TGI (SW-620 colon): 36.6 µM
- TGI (T-47D breast): 69.7 µM
- TGI (TK-10 renal): 29.3 µM
- TGI (U251 CNS): 29.2 µM
- TGI (UACC-257 melanoma): 29.3 µM
- TGI (UACC-62 melanoma): 21.5 µM
- TGI (UO-31 renal): 24.8 µM
